Results taken from US20230013669A1, “Antibacterial Treatment Using a Cannabinoid and an Active Agent” (priority 2019, published 2023).
Where “and” joins values, the source holds several entries; their conditions need not be identical. Equal values may be shown once. Read-outs that look alike come from different tables or passages of the source.

Columns and labels:
[1] = test system: Pseudomonas aeruginosa ATCC 27853 (GN_042); experiment: Synergy of cannabidiol with cell-wall disrupting agent (CBD MIC in combination, FICI); format: cell-based; settings: for FICI: calculated using MIC of 256 μg/mL for cannabidiol; for MIC: Pseudomonas aeruginosa
Protocol: (§1) The compounds were stored short term at 4° C.
(§2) Analysis was performed using Microsoft Excel.

[2] = test system: Acinetobacter baumannii 03.021.1 (GN_039), Colistin resistant; experiment: as above; format: cell-based; settings: for MIC: Acinetobacter baumannii
Protocol: as §1, §2

[3] = Example 9, GN_039, listed as CBD

## C=C(C)C1CCC(C)=CC1c1c(O)cc(CCCCC)cc1O (centres unmarked) [Cannabidiol, 2-[3-methyl-6-(1-methylethenyl)-2-cyclohexen-1-yl]-5-pentyl-1,3-benzenediol]
[1]; Ceftazidime at 0.25 μg/mL as headed in Table 64, Pseudomonas aeruginosa ATCC 27853
  CBD MIC with Ceftazidime: 1 ng/mL
[1]; Ceftazidime at 0.5 μg/mL (Table 66), Pseudomonas aeruginosa ATCC 27853
  CBD MIC with Ceftazidime: >32000 ng/mL
[1]; Ceftazidime at 0.5 μg/mL as headed in Table 64, Pseudomonas aeruginosa ATCC 27853
  CBD MIC with Ceftazidime: 1 ng/mL
[1]; Ceftazidime at 1 μg/mL (Table 66), Pseudomonas aeruginosa ATCC 27853
  CBD MIC with Ceftazidime: >32000 ng/mL
[1]; Ceftazidime at 2 μg/mL (Table 66), Pseudomonas aeruginosa ATCC 27853
  CBD MIC with Ceftazidime: 1 ng/mL
[1]; Ceftazidime at 4 μg/mL (Table 66), Pseudomonas aeruginosa ATCC 27853
  CBD MIC with Ceftazidime: 1 ng/mL
[1]; Ceftazidime at […] (Table 66), Pseudomonas aeruginosa ATCC 27853
  CBD MIC with Ceftazidime: >32000 ng/mL
[1]; Colistin at 1 μg/mL, Pseudomonas aeruginosa ATCC 27853
  CBD MIC with Colistin: 1 ng/mL
[1]; Example 1
  activity of cannabidiol in combination with Polymyxin B: effective
[1]; Example 1, GN_042, cannabidiol + MCC_006636 (Polymyxin B)
  Average FICI score: 0.265
[1]; Example 1, GN_042, cannabidiol + MCC_006636 (Polymyxin B), synergy when FICI≤0.5
  Synergy: YES
[1]; Example 6
  activity of cannabidiol combined with Polymyxin B: effective
[1]; Example 6, GN_042
  CBD MIC with Polymyxin B at concentration 0.015625 μg/mL: >256 µg/mL
  CBD MIC with Polymyxin B at concentration 0.03125 μg/mL: >256 µg/mL
  CBD MIC with Polymyxin B at concentration 0.0625 μg/mL: >256 µg/mL
  CBD MIC with Polymyxin B at concentration 0.25 μg/mL: >256 µg/mL
  CBD MIC with Polymyxin B at concentration […]: >256 µg/mL
[1]; Example 6, GN_042, listed as CBD
  CBD MIC with Polymyxin B at concentration 0.5 μg/mL: 2 µg/mL and 4 µg/mL
[1]; Example 13
  activity of cannabidiol combined with ticarcillin: effective
[1]; Example 16
  activity of cannabidiol combined with ceftazidime: effective
[1]; Example 18
  activity of cannabidiol combined with aztreonam: effective
[1]; Example 21
  activity of cannabidiol combined with octapeptin C4: effective
[1]; Example 24
  activity of cannabidiol in combination with MCC_8980: effective
[1]; Pseudomonas aeruginosa ATCC 27853, CBD with FADDI-287, MIC table (Table 95), listed as CBD
  FICI range: 0.53-4 and 0.56-4
[1]; Pseudomonas aeruginosa ATCC 27853, CBD with FADDI-287, Synergy table (Table 97)
  FICI range: No Synergy
[1]; Pseudomonas aeruginosa ATCC 27853, CBD with MCC_8980, MIC table (Table 99), listed as CBD
  FICI range: 0.16-1.06 and 0.19-1.06
[1]; Pseudomonas aeruginosa ATCC 27853, CBD with MCC_8980, Synergy table (Table 101), listed as CBD
  FICI range: 0.16-0.25 and 0.19-0.26
[1]; Pseudomonas aeruginosa ATCC 27853, CBD with Spero Potentiator SPR741, MIC table (Table 91)
  FICI range: 1.01-1.25
[1]; Pseudomonas aeruginosa ATCC 27853, CBD with Spero Potentiator SPR741, Synergy table (Table 93)
  FICI range: No Synergy
[1]; Pseudomonas aeruginosa ATCC 27853, CBD with Spero SPR206, Synergy table
  FICI range: No Synergy
[1]; Pseudomonas aeruginosa ATCC 27853, FADDI-287 at 0.5 μg/mL, listed as CBD
  CBD MIC with FADDI-287: 16 µg/mL
[1]; Pseudomonas aeruginosa ATCC 27853, MCC_8980 at 8 μg/mL, listed as CBD
  CBD MIC with MCC_8980: 16 µg/mL
[1]; Pseudomonas aeruginosa ATCC 27853, MCC_8980 at 16 μg/mL, listed as CBD
  CBD MIC with MCC_8980: 2 µg/mL
[1]; Pseudomonas aeruginosa ATCC 27853, cannabidiol with FADDI-287 at 0.25 μg/mL
  FICI: 1.25
[1]; Pseudomonas aeruginosa ATCC 27853, cannabidiol with FADDI-287 at 0.5 μg/mL
  FICI: 0.5312 and 0.5625
[1]; Pseudomonas aeruginosa ATCC 27853, cannabidiol with FADDI-287 at 1 μg/mL
  FICI: 1
[1]; Pseudomonas aeruginosa ATCC 27853, cannabidiol with FADDI-287 at 2 μg/mL
  FICI: 2
[1]; Pseudomonas aeruginosa ATCC 27853, cannabidiol with FADDI-287 at 4 μg/mL
  FICI: 4
[1]; Pseudomonas aeruginosa ATCC 27853, cannabidiol with MCC_8980 at 0.5 μg/mL
  FICI: 1.008
[1]; Pseudomonas aeruginosa ATCC 27853, cannabidiol with MCC_8980 at 1 μg/mL
  FICI: 1.016
[1]; Pseudomonas aeruginosa ATCC 27853, cannabidiol with MCC_8980 at 4 μg/mL
  FICI: 1.0625
[1]; Pseudomonas aeruginosa ATCC 27853, cannabidiol with MCC_8980 at 8 μg/mL
  FICI: 0.1562 and 0.1875
[1]; Pseudomonas aeruginosa ATCC 27853, cannabidiol with MCC_8980 at 16 μg/mL
  FICI: 0.2539 and 0.2578
[1]; Pseudomonas aeruginosa ATCC 27853, cannabidiol with SPR741 at 0.5 μg/mL
  FICI: 1.008
[1]; Pseudomonas aeruginosa ATCC 27853, cannabidiol with SPR741 at 1 μg/mL
  FICI: 1.016
[1]; Pseudomonas aeruginosa ATCC 27853, cannabidiol with SPR741 at 4 μg/mL
  FICI: 1.0625
[1]; Pseudomonas aeruginosa ATCC 27853, cannabidiol with SPR741 at 16 μg/mL
  FICI: 1.25
[1]; ATCC27853, MCC_6442 at 4 μg/mL, Pseudomonas aeruginosa ATCC 27853, read-out: CBD MIC with MCC_6442
  MIC: 1 ng/mL
[1]; ATCC27853, Octapeptin C4 at 4 μg/mL, read-out: CBD MIC with Octapeptin C4
  MIC: 1 ng/mL
[1]; ATCC27853, Pseudomonas aeruginosa ATCC 27853, FADDI-287 at 0.5 μg/mL, read-out: CBD MIC with FADDI-287
  MIC: 8000 ng/mL
[1]; ATCC27853, Pseudomonas aeruginosa ATCC 27853, FADDI-287 at 1 μg/mL, read-out: CBD MIC with FADDI-287
  MIC: 1 ng/mL
[1]; ATCC27853, Pseudomonas aeruginosa ATCC 27853, FADDI-287 at 2 μg/mL, read-out: CBD MIC with FADDI-287
  MIC: 1 ng/mL
[1]; ATCC27853, Pseudomonas aeruginosa ATCC 27853, FADDI-287 at 4 μg/mL, read-out: CBD MIC with FADDI-287
  MIC: 1 ng/mL
[1]; ATCC27853, Pseudomonas aeruginosa ATCC 27853, MCC_8980 at 8 μg/mL, read-out: CBD MIC with MCC_8980
  MIC: 8000 ng/mL
[1]; ATCC27853, Pseudomonas aeruginosa ATCC 27853, MCC_8980 at 16 μg/mL, read-out: CBD MIC with MCC_8980
  MIC: 1000 ng/mL
[1]; ATCC27853, Spero SPR206 at 0.25 μg/mL, 1st of 3 experiments, read-out: CBD MIC with Spero SPR206
  MIC: > 256000 ng/mL
[1]; ATCC27853, Spero SPR206 at 0.25 μg/mL, 3rd of 3 experiments, read-out: CBD MIC with Spero SPR206
  MIC: > 256000 ng/mL
[1]; ATCC27853, Spero SPR206 at 0.5 μg/mL, 1st of 3 experiments, read-out: CBD MIC with Spero SPR206
  MIC: > 256000 ng/mL
[1]; ATCC27853, Spero SPR206 at 0.5 μg/mL, 3rd of 3 experiments, read-out: CBD MIC with Spero SPR206
  MIC: > 256000 ng/mL
[1]; ATCC27853, Spero SPR206 at 1 μg/mL, 1st of 3 experiments, read-out: CBD MIC with Spero SPR206
  MIC: 1 ng/mL
[1]; ATCC27853, Spero SPR206 at 1 μg/mL, 3rd of 3 experiments, read-out: CBD MIC with Spero SPR206
  MIC: > 256000 ng/mL
[1]; ATCC27853, Spero SPR206 at 2 μg/mL, 1st of 3 experiments, read-out: CBD MIC with Spero SPR206
  MIC: 1 ng/mL
[1]; ATCC27853, Spero SPR206 at 2 μg/mL, 3rd of 3 experiments, read-out: CBD MIC with Spero SPR206
  MIC: > 256000 ng/mL
[1]; ATCC27853, Spero SPR206 at 4 μg/mL, 1st of 3 experiments, read-out: CBD MIC with Spero SPR206
  MIC: 1 ng/mL
[1]; ATCC27853, Spero SPR206 at 4 μg/mL, 3rd of 3 experiments, read-out: CBD MIC with Spero SPR206
  MIC: > 256000 ng/mL
[1]; Ticarcillin at 16 μg/mL, Pseudomonas aeruginosa ATCC 27853
  CBD MIC with Ticarcillin: 1 ng/mL
[1]; Ticarcillin at 32 μg/mL, Pseudomonas aeruginosa ATCC 27853
  CBD MIC with Ticarcillin: 1 ng/mL
[1]; Ticarcillin at 64 μg/mL, Pseudomonas aeruginosa ATCC 27853
  CBD MIC with Ticarcillin: 1 ng/mL
[2]; read-out: CBD MIC with MCC_00636 at concentration 0.25 μg/mL, Example 8, GN_039
  MIC: 4 µg/mL
[2]; read-out: CBD MIC with MCC_00636 at concentration 0.5 μg/mL, Example 8, GN_039
  MIC: 0.000977 µg/mL
[2]; read-out: CBD MIC with MCC_00636 at concentration 1 μg/mL, Example 8, GN_039
  MIC: 0.000977 µg/mL
[2]; read-out: CBD MIC with MCC_00636 at concentration […], Example 8, GN_039
  MIC: 4 µg/mL
[2]; read-out: CBD MIC with MCC_09222 at concentration 16 μg/mL, Example 9, GN_039
  MIC: 1 µg/mL
[2]; read-out: CBD MIC with MCC_09222 at concentration 32 μg/mL, Example 9, GN_039
  MIC: 0.5 µg/mL
[2]; read-out: CBD MIC with MCC_09222 at concentration 64 μg/mL, Example 9, GN_039
  MIC: 0.000977 µg/mL
[2]; read-out: CBD MIC with MCC_09222 at concentration 128 μg/mL, Example 9, GN_039
  MIC: 0.000977 µg/mL
[2]; Example 8
  cannabidiol combined with Polymyxin B: synergy: synergy
[2]; Example 9
  cannabidiol in combination with MCC_09222: synergy: synergistic effect
[2]; [3]
  CBD MIC with MCC_09222 at concentration 16 μg/mL: 2 µg/mL
  CBD MIC with MCC_09222 at concentration 32 μg/mL: 1 µg/mL
